# Calls of active or inactive are those of the source. The calls are words filed in the database; no cut-off is given here.
# Tested on: Staphylococcus aureus
# Test: Binding affinity to methicillin-resistant Staphylococcus aureus [(Ac)2-L-Lys-D-Ala-/-D-Ala] assessed as change in entropy by isothermal titration calorimetric method
row,SMILES,deltaS [cal/mol/deg]
1,OB(O)c1cccc(C(c2c[nH]c3ccccc23)c2c[nH]c3ccccc23)c1,-59.5

# Tested on: Staphylococcus aureus
# Test: Bactericidal activity against methicillin-resistant Staphylococcus aureus at 1.6 to 8 ug/ml
# Assay type: functional
row,SMILES,Activity
1,OB(O)c1ccc(C(c2c[nH]c3ccccc23)c2c[nH]c3ccccc23)cc1,Active

# Tested on: Staphylococcus aureus
# Test: Antibacterial activity against methicillin-resistant Staphylococcus aureus clinical isolates after 18 hrs by CLSI method
# Assay type: functional
row,SMILES,MIC [mg/L]
1,COc1ccc(C(c2c[nH]c3ccc(OC)cc23)c2c[nH]c3ccc(OC)cc23)cc1,> 1000
2,COc1ccc2[nH]cc(C(c3ccc(C(c4c[nH]c5ccc(OC)cc45)c4c[nH]c5ccc(OC)cc45)cc3)c3c[nH]c4ccc(OC)cc34)c2c1,500
3,O=[N+]([O-])c1ccc2[nH]cc(C(c3ccc(C(c4c[nH]c5ccc([N+](=O)[O-])cc45)c4c[nH]c5ccc([N+](=O)[O-])cc45)cc3)c3c[nH]c4ccc([N+](=O)[O-])cc34)c2c1,500
4,CN(C)c1ccc(C(c2c[nH]c3ccccc23)c2c[nH]c3ccccc23)cc1,> 1000
5,O=[N+]([O-])c1ccc(C(c2c[nH]c3ccc([N+](=O)[O-])cc23)c2c[nH]c3ccc([N+](=O)[O-])cc23)cc1,31.2
6,Brc1ccc(C(c2c[nH]c3ccccc23)c2c[nH]c3ccccc23)cc1,500
7,Brc1ccc(C(c2c[nH]c3ccc(Br)cc23)c2c[nH]c3ccc(Br)cc23)cc1,31.2
8,O=[N+]([O-])c1cccc(C(c2c[nH]c3ccccc23)c2c[nH]c3ccccc23)c1,15.6
9,OB(O)c1ccc(C(c2c[nH]c3ccccc23)c2c[nH]c3ccccc23)cc1,7.81
10,Cc1ccc(C(c2c[nH]c3ccc(Br)cc23)c2c[nH]c3ccc(Br)cc23)cc1,62.5
11,COc1ccc(C(c2c[nH]c3ccc([N+](=O)[O-])cc23)c2c[nH]c3ccc([N+](=O)[O-])cc23)cc1,> 1000
12,O=Cc1ccc(C(c2c[nH]c3ccccc23)c2c[nH]c3ccccc23)cc1,500
13,COc1ccc2[nH]cc(C(c3ccccc3[N+](=O)[O-])c3c[nH]c4ccc(OC)cc34)c2c1,500
14,OB(O)c1cccc(C(c2c[nH]c3ccccc23)c2c[nH]c3ccccc23)c1,3.91
15,COc1ccc2[nH]cc(C(c3ccc(Br)cc3)c3c[nH]c4ccc(OC)cc34)c2c1,62.5
16,O=[N+]([O-])c1ccc(C(c2c[nH]c3ccc(Br)cc23)c2c[nH]c3ccc(Br)cc23)cc1,15.6

row,SMILES,MIC [mg/L]
1,COc1ccc2[nH]cc(C(c3ccc(/C=N/Nc4ccc([N+](=O)[O-])cc4[N+](=O)[O-])cc3)c3c[nH]c4ccc(OC)cc34)c2c1,250
2,COc1ccc2[nH]cc(C(c3ccc(C)cc3)c3c[nH]c4ccc(OC)cc34)c2c1,> 1000
3,O=[N+]([O-])c1ccc(N/N=C/c2ccc(C(c3c[nH]c4ccccc34)c3c[nH]c4ccccc34)cc2)c([N+](=O)[O-])c1,500
4,O=[N+]([O-])c1ccc2[nH]cc(C(c3ccc(Br)cc3)c3c[nH]c4ccc([N+](=O)[O-])cc34)c2c1,500
5,c1ccc(C(c2c[nH]c3ccccc23)c2c[nH]c3ccccc23)cc1,> 1000
6,COc1ccc2[nH]cc(C(c3ccccc3)c3c[nH]c4ccc(OC)cc34)c2c1,> 1000
7,COc1ccc2[nH]cc(C(c3ccc(N(C)C)cc3)c3c[nH]c4ccc(OC)cc34)c2c1,> 1000
8,Cc1ccc(C(c2c[nH]c3ccccc23)c2c[nH]c3ccccc23)cc1,> 1000
9,c1ccc2c(C(c3ccc(C(c4c[nH]c5ccccc45)c4c[nH]c5ccccc45)cc3)c3c[nH]c4ccccc34)c[nH]c2c1,1000
10,COc1ccc2[nH]cc(C(c3ccc([N+](=O)[O-])cc3)c3c[nH]c4ccc(OC)cc34)c2c1,> 1000
11,O=[N+]([O-])c1ccc(C(c2c[nH]c3ccccc23)c2c[nH]c3ccccc23)cc1,500
12,Cc1ccc(C(c2c[nH]c3ccc([N+](=O)[O-])cc23)c2c[nH]c3ccc([N+](=O)[O-])cc23)cc1,> 1000
13,OB(O)c1ccccc1C(c1c[nH]c2ccccc12)c1c[nH]c2ccccc12,3.91
14,O=[N+]([O-])c1ccccc1C(c1c[nH]c2ccccc12)c1c[nH]c2ccccc12,500
15,Brc1ccc2[nH]cc(C(c3ccccc3)c3c[nH]c4ccc(Br)cc34)c2c1,> 1000

# Tested on: Staphylococcus aureus
# Test: Bactericidal activity against methicillin-resistant Staphylococcus aureus at 0.8 to 4 ug/ml
# Assay type: functional
row,SMILES,Activity
1,OB(O)c1cccc(C(c2c[nH]c3ccccc23)c2c[nH]c3ccccc23)c1,Active
2,OB(O)c1ccccc1C(c1c[nH]c2ccccc12)c1c[nH]c2ccccc12,Active

# Tested on: Staphylococcus aureus
# Test: Binding affinity to methicillin-resistant Staphylococcus aureus [(Ac)2-L-Lys-D-Ala-/-D-Ala] assessed as change in enthalpy by isothermal titration calorimetric method
row,SMILES,deltaH [kJ/mol]
1,OB(O)c1cccc(C(c2c[nH]c3ccccc23)c2c[nH]c3ccccc23)c1,-0.207

# Tested on: Staphylococcus aureus
# Test: Binding affinity to methicillin-resistant Staphylococcus aureus [(Ac)2-L-Lys-D-Ala-/-D-Ala] by isothermal titration calorimetric method
row,SMILES,K [M⁻¹]
1,OB(O)c1cccc(C(c2c[nH]c3ccccc23)c2c[nH]c3ccccc23)c1,242
